Results: patent publication US10072011B2, “Substituted bridged urea analogs as sirtuin modulators” (GlaxoSmithKline Intellectual Property (No.2) Limited, priority 2014, dated 2018)
Where two headings read alike, the source gives them in different places.

Molecular target: T1, SIRT1 (Homo sapiens, UniProt Q96EB6)
T1 sequence (Q96EB6 1-747): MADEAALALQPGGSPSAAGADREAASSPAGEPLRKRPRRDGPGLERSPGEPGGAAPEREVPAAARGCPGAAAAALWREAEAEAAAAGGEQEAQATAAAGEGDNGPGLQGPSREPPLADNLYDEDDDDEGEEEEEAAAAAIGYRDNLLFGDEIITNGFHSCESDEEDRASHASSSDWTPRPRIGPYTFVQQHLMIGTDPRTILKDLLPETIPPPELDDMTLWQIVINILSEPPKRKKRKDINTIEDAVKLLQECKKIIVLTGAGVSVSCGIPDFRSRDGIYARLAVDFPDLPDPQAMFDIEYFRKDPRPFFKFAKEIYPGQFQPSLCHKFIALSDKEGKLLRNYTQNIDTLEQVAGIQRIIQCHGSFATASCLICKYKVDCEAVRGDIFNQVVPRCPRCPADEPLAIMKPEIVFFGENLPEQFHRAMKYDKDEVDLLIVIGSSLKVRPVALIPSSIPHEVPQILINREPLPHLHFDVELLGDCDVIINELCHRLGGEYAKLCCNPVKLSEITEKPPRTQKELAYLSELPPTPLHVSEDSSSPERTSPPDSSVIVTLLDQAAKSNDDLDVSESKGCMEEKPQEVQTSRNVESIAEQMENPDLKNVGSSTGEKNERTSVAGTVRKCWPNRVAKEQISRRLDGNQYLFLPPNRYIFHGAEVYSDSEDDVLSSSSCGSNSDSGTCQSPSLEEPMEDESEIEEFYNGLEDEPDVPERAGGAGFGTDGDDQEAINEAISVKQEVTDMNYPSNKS
Experiment: Trp mass spectrometry assay of SIRT1 activation (Ac-R-H-K-K(Ac)-W-NH2 peptide)
Type: biochemical
Conditions: for Emax: 25 min, read-out: TRP MAX RESP (percent maximum fold activation)
Method in brief: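 Mass spectrometry read-out (OAADPR formed, or deacetylated Trp peptide) after a 25 min NAD-dependent deacetylation by E. coli-expressed His-SIRT1, stopped with formic acid.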

[1] = Trp peptide 0.5 μM, 120 μM βNAD+, 10 nM SIRT1, 25 min at 25° C., relative to control (100%)
[2] = Trp peptide 0.5 μM, 120 μM βNAD+, 10 nM SIRT1, 25 min at 25° C.

Structure (SMILES) | Emax [1] [%] | TRP Activity (EC1.5, concentration of test compound that results in 150% activation of SIRT1) [2] | Emax [%]
N#CCNC(=O)c1ccc2c(n1)N(C(=O)Nc1ccccn1)[C@H]1CCN2C1 [Example 107, (4S)—N7-(cyanomethyl)-N5-(pyridin-2-yl)-3,4-dihydro-1,4-methanopyrido[2,3-b][1,4]diazepine-5,7(2H)-dicarboxamide] |  | A (EC1.5<1 μM) | > 150
O=C(O)CNC(=O)c1ccc2c(n1)N(C(=O)Nc1ccccn1)[C@H]1CCN2C1 [Example 14, 2-((4S)-5-(pyridin-2-ylcarbamoyl)-2,3,4,5-tetrahydro-1,4 methanopyrido[2,3-b][1,4]diazepine-7-carboxamido)acetic acid] | < 150 | C (EC1.5>25 μM) | 
O=C(NCC1CC1)c1ccc2c(n1)N(C(=O)Nc1ccncn1)[C@H]1CCN2C1 [Example 219, (4S)—N7-(cyclopropylmethyl)-N5-(pyrimidin-4-yl)-3,4-dihydro-1,4-methanopyrido[2,3-b][1,4]diazepine-5,7(2H)-dicarboxamide] | > 150 | B (EC1.5 1-25 μM) | 
O=C(NCc1cccc(F)c1)c1ccc2c(n1)N(C(=O)Nc1ccccn1)[C@H]1CCN2C1 [Example 236, (4S)—N7-(3-fluorobenzyl)-N5-(pyridin-2-yl)-3,4-dihydro-1,4-methanopyrido[2,3-b][1,4]diazepine-5,7(2H)-dicarboxamide] | > 150 | A (EC1.5<1 μM) | 
CC(C)CNC(=O)c1ccc2c(n1)N(C(=O)Nc1ccccn1)[C@H]1CCN2C1 [Example 37, (4S)—N7-isobutyl-N5-(pyridin-2-yl)-3,4-dihydro-1,4-methanopyrido[2,3-b][1,4]diazepine-5,7(2H)-dicarboxamide] | > 150 | A (EC1.5<1 μM) | 
C[C@@H](NC(=O)c1ccc2c(n1)N(C(=O)Nc1ncc(F)cc1F)[C@H]1CCN2C1)C(F)(F)F [Example 239, (4S)—N5-(3,5-difluoropyridin-2-yl)-N7-((R)-1,1,1-trifluoropropan-2-yl)-3,4-dihydro-1,4-methanopyrido[2,3-b][1,4]diazepine-5,7(2H)-dicarboxamide] | > 150 | B (EC1.5 1-25 μM) | 
O=C(NC1CCC1)c1ccc2c(n1)N(C(=O)Nc1cnccn1)[C@H]1CCN2C1 [Example 206, (4S)—N7-cyclobutyl-N5-(pyrazin-2-yl)-3,4-dihydro-1,4-methanopyrido[2,3-b][1,4]diazepine-5,7(2H)-dicarboxamide] | > 150 | B (EC1.5 1-25 μM) | 
Cc1ccc2c(NC(=O)N3c4nc(C(=O)NC5CC5(F)F)ccc4N4CC[C@H]3C4)n[nH]c2n1 (single isomer, unassigned) [Example 65] | > 150 | A (EC1.5<1 μM) | 
CC(C#N)NC(=O)c1ccc2c(n1)N(C(=O)Nc1ccccn1)[C@H]1CCN2C1 (single isomer, unassigned) [Example 102] | > 150 | A (EC1.5<1 μM) | 
O=C(NCC1CC1)c1ccc2c(n1)N(C(=O)Nc1ccc(F)cn1)[C@H]1CCN2C1 [Example 38, (4S)—N7-(cyclopropylmethyl)-N5-(5-fluoropyridin-2-yl)-3,4-dihydro-1,4-methanopyrido[2,3-b][1,4]diazepine-5,7(2H)-dicarboxamide] | > 150 | A (EC1.5<1 μM) | 

Second part, led by results:

Emax [1] [%] | TRP Activity (EC1.5, concentration of test compound that results in 150% activation of SIRT1) [2] | Structure (SMILES) | Emax [%]
< 150 | A (EC1.5<1 μM) | C[C@@H](NC(=O)c1ccc2c(n1)N(C(=O)Nc1cc(-c3nn[nH]n3)ccn1)[C@H]1CCN2C1)C(F)(F)F [Example 308, (4S)—N5-(4-(2H-tetrazol-5-yl)pyridin-2-yl)-N7-((R)-1,1,1-trifluoropropan-2-yl)-3,4-dihydro-1,4-methanopyrido[2,3-b][1,4]diazepine-5,7(2H)-dicarboxamide] | 
< 150 | A (EC1.5<1 μM) | C[C@@H](NC(=O)c1ccc2c(n1)N(C(=O)Nc1cc(-c3cc[nH]n3)ccn1)[C@H]1CCN2C1)C(F)(F)F [Example 323, (4S)—N5-(4-(1H-pyrazol-3-yl)pyridin-2-yl)-N7-((R)-1,1,1-trifluoropropan-2-yl)-3,4-dihydro-1,4-methanopyrido[2,3-b][1,4]diazepine-5,7(2H)-dicarboxamide] | 
> 150 | A (EC1.5<1 μM) | C[C@@H](NC(=O)c1ccc2c(n1)N(C(=O)Nc1cnccn1)[C@H]1CCN2C1)C(F)(F)F [Example 237, (4S)—N5-(pyrazin-2-yl)-N7-((R)-1,1,1-trifluoropropan-2-yl)-3,4-dihydro-1,4-methanopyrido[2,3-b][1,4]diazepine-5,7(2H)-dicarboxamide] | 
> 150 | A (EC1.5<1 μM) | C[C@@H](NC(=O)c1ccc2c(n1)N(C(=O)Nc1ccc(OC[C@@H](O)CO)cn1)[C@H]1CCN2C1)C(F)(F)F [Example 153, (4S)—N5-(5-((S)-2,3-dihydroxypropoxy)pyridin-2-yl)-N7-((R)-1,1,1-trifluoropropan-2-yl)-3,4-dihydro-1,4-methanopyrido[2,3-b][1,4]diazepine-5,7(2H)-dicarboxamide] | 
> 150 |  | C[C@@H](NC(=O)c1ccc2c(n1)N(C(=O)Nc1cc(OC[C@H](O)CO)ccn1)[C@H]1CCN2C1)C(F)(F)F [Example 74, (4S)—N5-(4-((R)-2,3-dihydroxypropoxy)pyridin-2-yl)-N7-((R)-1,1,1-trifluoropropan-2-yl)-3,4-dihydro-1,4-methanopyrido[2,3-b][1,4]diazepine-5,7(2H)-dicarboxamide] | 
< 150 | A (EC1.5<1 μM) | Cc1cc(C(=O)NCC(F)(F)F)nc2c1N1CC[C@@H](C1)N2C(=O)Nc1cc(OC[C@H](O)CO)ccn1 [Example 294, (4S)—N5-(4-((R)-2,3-dihydroxypropoxy)pyridin-2-yl)-9-methyl-N7-(2,2,2-trifluoroethyl)-3,4-dihydro-1,4-methanopyrido[2,3-b][1,4]diazepine-5,7(2H)-dicarboxamide] | 
> 150 | A (EC1.5<1 μM) | O=C(NCC(F)(F)F)c1ccc2c(n1)N(C(=O)Nc1cc3c(cn1)OCCC3)[C@H]1CCN2C1 [Example 133, (4S)—N5-(3,4-dihydro-2H-pyrano[2,3-c]pyridin-6-yl)-N7-(2,2,2-trifluoroethyl)-3,4-dihydro-1,4-methanopyrido[2,3-b][1,4]diazepine-5,7(2H)-dicarboxamide] | 
> 150 | A (EC1.5<1 μM) | Cc1cc(C(=O)N[C@H](C)C(F)(F)F)nc2c1N1CC[C@@H](C1)N2C(=O)Nc1ccccn1 [Example 288, (4S)-9-methyl-N5-(pyridin-2-yl)-N7-((R)-1,1,1-trifluoropropan-2-yl)-3,4-dihydro-1,4-methanopyrido[2,3-b][1,4]diazepine-5,7(2H)-dicarboxamide] | 
> 150 | B (EC1.5 1-25 μM) | CS(=O)(=O)c1ccc(NC(=O)N2c3nc(C(=O)NCC(F)(F)F)ccc3N3CC[C@H]2C3)nc1 [Example 146, (4S)—N5-(5-(methylsulfonyl)pyridin-2-yl)-N7-(2,2,2-trifluoroethyl)-3,4-dihydro-1,4-methanopyrido[2,3-b][1,4]diazepine-5,7(2H)-dicarboxamide] | 
< 150 | A (EC1.5<1 μM) | Cc1cnnc(NC(=O)N2c3nc(C(=O)N[C@H](C)C(F)(F)F)ccc3N3CC[C@H]2C3)c1 [Example 300, (4S)—N5-(5-methylpyridazin-3-yl)-N7-((R)-1,1,1-trifluoropropan-2-yl)-3,4-dihydro-1,4-methanopyrido[2,3-b][1,4]diazepine-5,7(2H)-dicarboxamide] | 
> 150 | A (EC1.5<1 μM) | O=C(NCCC(F)(F)F)c1ccc2c(n1)N(C(=O)Nc1ccc(F)cn1)[C@H]1CCN2C1 [Example 79, (4S)—N5-(5-fluoropyridin-2-yl)-N7-(3,3,3-trifluoropropyl)-3,4-dihydro-1,4-methanopyrido[2,3-b][1,4]diazepine-5,7(2H)-dicarboxamide] | 
